The values below come from PMC4999848 (Toxins, 2016).

Several values for one entry are separate records, joined by “and”; a condition that tells them apart may be missing. Identical values can stand only once.

On the set-up of data set [1]: method as in PMID 26343882. The conditions noted are these: pigs, oral and intravenous (i.v) exposures; cited from earlier work.
The test system of a further data set is small intestinal explant. Briefly: Deacetylation of 3/15ADON by human small intestinal explants. The format is in vitro ADME. The conditions noted are these: for Contribution to total deacetylation activity: Small intestine: percentage of sum of specific activities (Figure 8); for Disappearance of 3/15ADON, specific activity: small intestinal explant, 37 °C, substrate 100 μM; for % of deacetylation: small intestinal explants, 6 h incubation, 100 μM. From the text:
Human tissue samples were obtained from patients undergoing surgery at the Hospital Nord of Marseille, unit of general and gastrointestinal surgery according to a collaborative “clinical transfer” project. The procedures were approved by the French ethic committee (CODECOH n° DC-2011-1319). Patients were from both genders (six men, three women), 31–74 years of age, all of European origin. All patients agree to use their tissues for research purposes. Samples were taken from macroscopically unaffected area as identified by the surgeon for intestinal samples or the pathologist for liver resections. Diagnoses leading to surgery were carcinoma for intestine or liver. After resection, the specimens were placed in ice-cold non-sterile Krebs solution implemented and transferred to the school of medicine on the same campus within 5 min, composition of the Krebs solution being previously described. The tissues were rinsed several times and maintained in oxygenated Krebs during 1 h for recovery before final dissection. Intestinal and hepatic resections were extensively washed and maintained in ice-cold culture media containing 1% streptomycin/penicillin solution and 50 μg/mL gentamycin. Tissues were cleaned from vascular vessels and conjunctive tissue using forceps under binocular microscope. In case of intestinal resection, muscularis and plexus were removed and only epithelial layer was kept. Intestinal and hepatic explants (wet weight of 20–30 mg) were then isolated from the cleaned resections using surgical punch (diameter of […]). […] Finally, the explants were washed 3 times with PBS^++ and transferred into 6-well plates before being used for deacetylation assay.
(§1) Stock solutions of DON, 3ADON and 15ADON at 2 mg/mL were prepared in absolute ethanol and stored at −20 °C. For deacetylation assay, 3- or 15ADON were incubated with cells, explants, bacteria or digestive enzymes after being diluted in PBS^++ at a final concentration of 100 μM. PBS^++ solution containing only ethanol (at 1.5% final concentration) or DON (at 100 μM) were used in parallel as negative and positive control, respectively. For cells and explants, deacetylation assay take place in 6-well plates, wells being filled with 2 mL of PBS^++ containing either ethanol, DON, 3- or 15ADON. For fecal bacteria and digestive enzyme assay, deacetylation assay was conducted in 2 mL Eppendorf tubes filled with 1.5 mL of PBS^++ containing either ethanol, DON, 3- or 15ADON. In vitro intestinal digestion by luminal enzymes was performed using porcine enzymes from Sigma-Aldrich and physiological conditions. Briefly, 3- or 15ADON were incubated with pepsin (at 1.6 mg/mL corresponding to 900 U/mL), trypsin (at 0.35 mg/mL corresponding to 6000 U/mL), pancreatic lipase (at 0.75 mg/mL corresponding to 18 U/mL) or pancreatin (at 1.23 mg/mL, lipase activity >10 U/mL, protease activity >100 U/mL, amylase activity >100 U/mL). Except for pepsin for which the digestion was conducted in HCl solution at 10 mM (pH 2.3), in vitro digestion was performed in PBS^++ (pH 7.4). Finally, deacetylation assay was also performed with commercial pooled S9 fractions from human liver, small intestine and kidneys as well as with pure recombinant human CES1 and CES2. S9 fractions and CES1/2 were used at 0.1 mg/mL and 5 μg/mL (corresponding to CES activity >20 U/mL), respectively. In all cases, aliquots of the reaction solution were collected immediately (i.e., “time zero” sample) or after the indicated time period at 37 °C and analyzed by HPLC. […] In all cases, the experiments were conducted in triplicate (n = 3).

Data set [2] in a line: Deacetylation of 3/15ADON by kidney S9 fraction. The format is in vitro ADME, human. The conditions noted are these: for Disappearance of 3/15ADON, specific activity: S9 kidney 0.1 mg/mL, 37 °C, substrate 100 μM; for Activity of renal S9 fraction on 3/15ADON: in words. How it is done: as §1
(§2) Deacetylation was monitoring both in term of disappearance of 3- or 15ADON and formation of DON. Measurement of DON, 3ADON and 15ADON concentrations was performed by reversed-phase HPLC using Waters Alliance System equipped with a Waters 2690 XE separation module and a Waters 996 photodiode array detector (Waters, Saint Quentin Falavier, France). The separation was achieved by mean of a LiChroCart column (125 mm × 4 mm) packed with 5 μm RP-18 Purospher gel (Merck, Darmstadt, Germany) and equipped with a LiChroCart precolumn (4 mm × 4 mm) packed with the same material (Merck). The precolumn and column were placed in room temperature. […] Quantification was based on calibration with the corresponding standard using Millinium Software (Waters, Saint Quentin Falavier, France).

The next data set deals with T1, pepsin (Sus scrofa, UniProt P00791).
T1 construct: purchased Sigma-Aldrich
Briefly: Deacetylation of 3/15ADON by pepsin. Format: in vitro ADME, porcine. The conditions noted are these: for Disappearance of 3/15ADON, specific activity: pepsin 1.6 mg/mL, HCl 10 mM pH 2.3, 37 °C, substrate 100 μM; for Contribution to total deacetylation activity: Pepsin: percentage of sum of specific activities (Figure 8). How it is done:
as §1, §2

The subject of another data set is human fecal bacteria. The conditions noted are these: 48 h incubation; cited from earlier work.
Details of data set [3]: method as in PMID 26343882. The conditions noted are these: chickens, after oral or i.v treatment; cited from earlier work.

T1 sequence (P00791 60-385): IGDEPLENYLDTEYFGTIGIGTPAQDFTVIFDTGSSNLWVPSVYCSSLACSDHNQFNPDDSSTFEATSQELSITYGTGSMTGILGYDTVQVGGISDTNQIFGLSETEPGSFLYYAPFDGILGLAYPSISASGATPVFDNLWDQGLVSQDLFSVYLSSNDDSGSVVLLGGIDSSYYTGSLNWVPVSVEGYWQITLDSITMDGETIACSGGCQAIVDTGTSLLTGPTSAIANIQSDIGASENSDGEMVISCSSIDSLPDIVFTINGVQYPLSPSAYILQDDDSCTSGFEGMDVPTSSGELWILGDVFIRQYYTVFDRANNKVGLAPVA

In the case of `CC(=O)O[C@@H]1C[C@]2(C)[C@@]3(CO)[C@H](O)C(=O)C(C)=C[C@H]3O[C@H]1[C@@]21CO1` [3ADON, 3-acetyldeoxynivalenol], the “Transformation into DON in vivo” value in data set [1] is recorded as “complete transformation into DON”. For the same molecule, in the data set on small intestinal explant, the “Contribution to total deacetylation activity: Small intestine” value is on record as 26%; the “Disappearance of 3/15ADON, specific activity” value (“Disappearance of 3/15ADON” for short) is 338 pmol/min/mg and 338 ± 69 pmol/min/mg; the “% of deacetylation” value is 67.3% ± 13.8%. In data set [2], the “Disappearance of 3/15ADON” value was 33 pmol/min/mg and 33 ± 8.3 pmol/min/mg; the “Activity of renal S9 fraction on 3/15ADON” value was “minor activity, if any”. Moreover, on pepsin, the “Disappearance of 3/15ADON” value turned out to be 34 ± 7.5 pmol/min/mg and the “Contribution to total deacetylation activity: Pepsin” value came to 3%. Also, the “% deacetylation” value in the data set with human fecal bacteria is listed as 78% ± 30%.

As for `CC(=O)OC[C@]12[C@H](O)C(=O)C(C)=C[C@H]1O[C@@H]1[C@H](O)C[C@@]2(C)[C@]12CO2` [15ADON, 15-acetyldeoxynivalenol], the “Acetylated form in blood” value in data set [3] was “traces of 15ADON are present in the blood”. In data set [1], the “Transformation into DON in vivo” value is “complete transformation into DON”. In addition, in the data set with small intestinal explant, the “Contribution to total deacetylation activity: Small intestine” value was determined as 13%; the “Disappearance of 3/15ADON” value is 85 pmol/min/mg and 85 ± 65 pmol/min/mg; the “% of deacetylation” value is reported as 17.2% ± 13.4%. In data set [2], the “Disappearance of 3/15ADON” value was 16 pmol/min/mg and 16 ± 5.8 pmol/min/mg; the “Activity of renal S9 fraction on 3/15ADON” value was “minor activity, if any”. Moreover, on pepsin, the “Disappearance of 3/15ADON” value amounted to 40 ± 4.5 pmol/min/mg and the “Contribution to total deacetylation activity: Pepsin” value is 7%.
